Read-outs that look alike come from different tables or passages of the source.
How the values were obtained:
[1] = Water solubility of the prepared salts; assay type: physicochemical
[2] = Stability of sample solutions in the dark/under light; assay type: physicochemical
Description: Determination: An appropriate amount of a salt sample was taken, dissolved with water, and diluted to prepare a test solution with a concentration of about 10 ppm. An acidic reference substance (extremely-insoluble in water) was prepared with a 30% to 50% ethanol aqueous solution into a test solution with a concentration of about 10 ppm.
Each test solution was scanned by an ultraviolet spectrophotometer (at 0 h) for absorbance in a range of 200 nm to 800 nm immediately after being prepared. Then a test solution of each sample was divided into two parts. One part was placed at room temperature of 25° C. in the dark, and the other part was placed under light with a light intensity of 30,000 lux. At 1 h, 2 h, and 3 h, a solution sample was collected and scanned for absorbance respectively.
An absorbance value of a maximum absorption peak at 0 h (starting) of each test solution was set as a relative content of 100%, and a ratio of an absorbance value at each time point to the absorbance value at 0 h was calculated to determine a relative content, %.

chlorophyllase = experiment: In vitro chlorophyllase-inhibiting activity test; assay type: biochemical, mung bean
Description: A chlorophyllase inhibition rate of a salt sample solution at each concentration was determined, and an IC50 value for a chlorophyllase inhibition activity of a salt sample was calculated.

[3] = Dilution and pH determination for sample solutions; assay type: physicochemical
Description: Method: 0.2500 g of a sample was accurately weighed and added to a 25 mL volumetric flask, dissolved with purified water, and diluted to a specified scale to prepare a 1.00% (10,000.0 ppm) initial solution. The initial solution was diluted with purified water in different ratios to prepare a series of solutions with a concentration of 1,000.0 ppm to 0.1 ppm. A pH value of each sample was determined three times.

wheat = experiment: Germination of wheat and growth of seedlings; assay type: in vivo, wheat (Huaimai 35); conditions: for Root length / Root number / Root weight / Seedling height / Seedling weight: wheat seedlings
Description: Method: 3 replicates were set for each treatment. 50 full seeds with a consistent size were selected each time for each sample, disinfected with sodium hypochlorite for 5 min, rinsed with clear water, and placed in a plastic box filled with 100 g of a sand. 25 mL of a prepared sample solution was poured into the plastic box, and the seeds were arranged regularly. The plastic box was covered with a lid, and then incubated in a 25° C. incubator. The germination was determined when a length of a sprout of a wheat seed exceeded a half of a diameter (long axis) of the wheat seed (determination criterion). According to the growth of wheat, the germ exposure of seeds and the number of germinated seeds were recorded every day. On day 6, 10 wheat seedlings were randomly selected, and a root length, a plant height, and a root number were determined. On day 7, a root weight and an aboveground part weight were determined. All index data was produced based on 3 replicates.

[4] = under light 30,000 lux, 1 h, salts in water, acidic reference in 30% to 50% ethanol
[5] = under light 30,000 lux, 2 h, salts in water, acidic reference in 30% to 50% ethanol
[6] = under light 30,000 lux, 3 h, salts in water, acidic reference in 30% to 50% ethanol
[7] = substrate chlorophyll 120 ppm, sample 0.3 ppm to 30.0 ppm

Row | solubility in water [1] | Relative content [2, 4] [%] | Relative content [2, 5] [%] | Relative content [2, 6] [%] | IC50 for chlorophyllase inhibition activity (chlorophyllase; [7]) [ppm] | Molecule | also measured
1 | slightly soluble | 69.84 | 65.37 | 60.04 | 14.19 | zinc copper chlorophyllin [Example 50] | 
2 |  |  |  |  | 6.05 | ammonium chlorin [Example 54] | 
3 | slightly soluble | 44.94 | 40.28 | 34.21 | 6.23 | manganese chlorin [Example 59] | 
4 | slightly soluble | 88.43 | 93.28 | 70.90 | 17.76 | copper zinc chlorophyllin [Example 42] | 
5 | soluble | 76.34 | 72.11 | 67.37 | 13.85 | manganese copper chlorophyllin [Example 47] | 
6 |  | 52.48 | 46.08 | 41.51 | 15.55 | potassium zinc chlorophyllin [Zinc chlorophyllin K^+] | 
7 |  |  |  |  | 5.11 | calcium iron chlorin [Example 24] | 
8 |  |  |  |  | 5.58 | ammonium iron chlorin [Example 22] | 
9 |  | 69.34 | 63.04 | 60.46 | 5.16 | zinc iron chlorophyllin [Iron chlorophyllin Zn^2+] | 
10 |  | 74.46 | 68.03 | 66.86 | 11.87 | magnesium copper chlorophyllin [Example 45] | 
11 |  | 74.25 | 66.34 | 62.11 | 5.06 | magnesium iron chlorin [Example 23] | 
12 |  | 81.00 | 74.21 | 63.35 | 5.38 | calcium iron chlorophyllin [Iron chlorophyllin Ca^2+] | 
13 |  | 51.90 | 42.51 | 37.81 | 15.91 | sodium zinc chlorophyllin [Zinc chlorophyllin Na^+] | 
14 |  |  |  |  |  | manganese zinc chlorophyllin [Example 40] | IC50 for chlorophyllase inhibition activity (chlorophyllase): 18.10 ppm
15 |  |  |  |  | 5.43 | ammonium iron chlorophyllin [Example 31] | 
16 |  |  |  |  | 6.43 | calcium chlorin [Example 56] | 
17 |  | 70.13 | 61.00 | 58.68 | 5.55 | manganese iron chlorophyllin [Iron chlorophyllin Mn^2+] | 
18 |  | 53.53 | 45.74 | 39.42 | 16.37 | magnesium zinc chlorophyllin [Example 36] | 
19 |  |  |  |  |  | ammonium copper chlorophyllin [Example 44] | IC50 for chlorophyllase inhibition activity (chlorophyllase): 13.68 ppm
20 | slightly soluble | 95.23 | 95.03 | 93.04 |  | C=CC1=C(C)c2cc3[n-]c(cc4nc(cc5[n-]c(cc1n2)c(C)c5CCC(=O)[O-])C(CCC(=O)[O-])=C4C)c(C)c3C=C.[Cl-].[Cu+2].[Fe+3] [Example 19, copper chlorhematin] | 
21 |  |  |  |  |  | calcium zinc chlorophyllin [Example 37] | IC50 for chlorophyllase inhibition activity (chlorophyllase): 17.78 ppm
22 |  |  |  |  | 18.06 | ammonium zinc chlorophyllin [Example 35] | 
23 | slightly soluble | 94.32 | 93.24 | 90.85 |  | zinc hydroxyhematin [Example 69] | 
24 |  | 43.47 | 35.26 | 30.41 | 6.22 | magnesium chlorin [Example 55] | 
25 |  | 72.50 | 67.03 | 66.30 | 13.72 | sodium copper chlorophyllin [Copper chlorophyllin Na^+] | 

Row | Molecule | solubility in water [1] | Relative content [2, 4] [%] | Relative content [2, 5] [%] | Relative content [2, 6] [%] | IC50 for chlorophyllase inhibition activity (chlorophyllase; [7]) [ppm] | also measured
26 | C=CC1=C(C)c2cc3[n-]c(cc4nc(cc5[n-]c(cc1n2)c(C)c5C=C)C(C)=C4CCC(=O)[O-])c(CCC(=O)[O-])c3C.[Cl-].[Fe+3].[Na+].[Na+] [Example 11, sodium chlorhematin] | easily soluble | 74.11 | 69.68 | 67.73 |  | pH ([3]; 20 ppm solution in water (Comparative Test 2)): 7.5
27 | calcium copper chlorophyllin [Example 46] |  |  |  |  | 13.49 | 
28 | potassium protoporphyrin [Example 1] | easily soluble | 65.90 | 56.97 | 58.17 |  | Germination rate of wheat (wheat; 0.0025 ppm): 94.7%; Root length (wheat; 0.0025 ppm): 9.63 cm; Root number (wheat; 0.0025 ppm): 5.4; Root weight (wheat; 0.0025 ppm): 0.1230 g; Seedling height (wheat; 0.0025 ppm): 8.95 cm; Seedling weight (wheat; 0.0025 ppm): 0.241 g; Germination rate of wheat (wheat; 0.0250 ppm): 95.3%; Root length (wheat; 0.0250 ppm): 10.17 cm; Root number (wheat; 0.0250 ppm): 5.2; Root weight (wheat; 0.0250 ppm): 0.0976 g; Seedling height (wheat; 0.0250 ppm): 9.48 cm; Seedling weight (wheat; 0.0250 ppm): 0.242 g; Germination rate of wheat (wheat; 0.2500 ppm): 90.7%; Root length (wheat; 0.2500 ppm): 8.68 cm; Root number (wheat; 0.2500 ppm): 5.3; Root weight (wheat; 0.2500 ppm): 0.1134 g; Seedling height (wheat; 0.2500 ppm): 7.64 cm; Seedling weight (wheat; 0.2500 ppm): 0.228 g
29 | C=CC1=C(C)c2cc3[nH]c(cc4nc(cc5[nH]c(cc1n2)c(C)c5C=C)C(C)=C4CCC(=O)[O-])c(CCC(=O)[O-])c3C.[Cu+2] [Example 9, copper protoporphyrin] | slightly soluble | 96.42 | 95.56 | 94.88 |  | 
30 | magnesium protoporphyrin [Example 3] | soluble | 93.32 | 90.98 | 89.65 |  | 
31 | C=CC1=C(C)c2cc3[n-]c(cc4nc(cc5[n-]c(cc1n2)c(C)c5C=C)C(C)=C4CCC(=O)[O-])c(CCC(=O)[O-])c3C.[Cl-].[Fe+3].[Mg+2] [Example 13, magnesium chlorhematin] | soluble | 82.11 | 81.84 | 75.61 |  | pH ([3]; 0.1 ppm in purified water): (6.92); pH ([3]; 1.0 ppm in purified water): (7.27); pH ([3]; 10.0 ppm in purified water): (7.63); pH ([3]; 20.0 ppm in purified water): (7.77); pH ([3]; 30.0 ppm in purified water): (7.87); pH ([3]; 100.0 ppm in purified water): (8.01); Relative content ([2]; in the dark, 25° C., 0 h): 100.00%; Relative content ([2]; in the dark, 25° C., 1 h): 100.10%; Relative content ([2]; in the dark, 25° C., 2 h): 99.76%; Relative content ([2]; in the dark, 25° C., 3 h): 99.38%; Relative content ([2]; under light 30,000 lux, 0 h): 100.00%

From patent publication US20260123631A1, “NATURAL PORPHIN SALT AND USE THEREOF AS PLANT GROWTH REGULATOR AND PLANT IMMUNITY INDUCER” (NANJING BOSTEC BIOLOGICAL ENGINEERING CO., LTD, priority 2022, published 2026)
